Results reported in US8632813B2, “Prostaglandin compositions and methods for the treatment of vasospasm” (Nexmed (Holdings), Inc., priority 2003, dated 2014).

How the values were obtained:
[1] = tested on: vasospasm, central artery and vein of the ear; test: Pilot study of 0.4% PGE1 topical composition on adrenaline-induced ear vasospasm (Example 5, FIG. 1-2); type: in vivo, New Zealand rabbit; details: 1 mg of PGE1 dissolved in 75% aqueous ethanol on skin of right ear
Description: The objects of these pilot studies were designed to explore the efficacy of a specially formulated 0.4 wt % PGE1 topical composition for treating vasospasm and skin disorders that result from insufficient local blood circulation. Twenty four adult New Zealand rabbit, 3-4 kg, were divided into three groups: 12 rabbits were assigned into a Test Study Group; 6 rabbits were assigned into a PGE1 Control Group and 6 rabbits were assigned into an Alcohol Control Group. One rabbit of each Group was selected to enter the study at the same time for each of the first six studies.
The rabbit's right ear was selected to be the test application site, while its left ear was observed as a control. An adrenaline solution (0.2 ml of a 0.1% (1:1000) solution) was injected into the area adjacent to both the central artery and vein near the bottom of both ears. Classic vasospasm appeared five minutes later on both ears. One of three test substances, 125 mg of a 0.4% PGE1 topical composition containing 1.8% DDAIP HCl was applied to a 2 cm×2 cm area of skin adjacent to the central artery and vein of the right ear.
Vasospasm was induced in the same way in both ears of the rabbits of the PGE1 Control Group and the Alcohol Control Group. Similarly, 1 mg of PGE1 dissolved in 75% aqueous ethanol, or the 75% aqueous ethanol vehicle alone were applied to the right ears of the rabbits of the PGE1 Control Group and the Alcohol Control Group respectively. The time course of changes in blood vessel diameter was observed.

[2] = tested on: vasospasm induced by adrenaline hydrochloride, femoral artery; test: Ultrasonography of blood flow volume in surgically exposed femoral artery with adrenaline-induced vasospasm (Example 4); type: in vivo, New Zealand Rabbits; details: four drops of papaverine (30 mg/ml) on exposed femoral artery; for The Average Time Required To Return To The Initial Blood Flow Volume: 120 minute test
Description: Rabbits were obtained and anesthetized as described in Example 2, above. A total of 70 rabbits were randomly assigned into 7 groups with 10 rabbits per group. Blood flow velocity and vascular cross section area were measured and analyzed using a Toshiba Multifunction Ultrasonography 6000 system. A portion of femoral artery about 2 cm long was exposed through a 3 cm incision. […] The entire test was performed under a constant room temperature of 20 degrees Celsius. About ten minutes after the application of adrenaline hydrochloride, the operating field was irrigated with sterile saline topically and dried with sterile pad. […] The incision was closed after the application of the topical composition. The ultrasonic probe was put at a fixed location 1 cm from the incision. […] In general, blood flow volume=blood flow velocity×vascular cross section The data were expressed as average±SD; t-test was used for statistical analysis. The averaged data are reported in Table 9, below, as instantaneous blood flow volume±standard deviation (SD), N=10, and shown graphically in FIG. 6.

| SMILES | changes of the vascular bed of the right ear [1] | duration of the dilation effect [1] [min] | time after application at which the vasospasm was alleviated slightly [1] [min] | time until vessels of the right ear were dilated [1] [min] | The accumulated blood flow volume from 10 minutes after vasospasm to 120 minutes after drug administration [2] [cm^3] | instantaneous blood flow volume ([2]; 5 min after Drug) [mm^3/s] | instantaneous blood flow volume ([2]; 5 min after Vasospasm (before drug)) [mm^3/s] | instantaneous blood flow volume ([2]; 10 min after Drug) [mm^3/s] | instantaneous blood flow volume ([2]; 10 min after Vasospasm (before drug)) [mm^3/s] | instantaneous blood flow volume ([2]; 15 min after Drug) [mm^3/s] | instantaneous blood flow volume ([2]; 30 min after Drug) [mm^3/s] | instantaneous blood flow volume ([2]; 60 min after Drug) [mm^3/s] | instantaneous blood flow volume ([2]; 90 min after Drug) [mm^3/s] | instantaneous blood flow volume ([2]; 120 min after Drug) [mm^3/s] | The Average Time Required To Return To The Initial Blood Flow Volume [2] [min] | The Average Time Required To Return To The Initial Blood Flow Volume ([2]; listed as papaverine) | instantaneous blood flow volume ([2]; Normal Condition (before drug)) [mm^3/s] | The accumulated blood flow volume from 10 minutes after vasospasm to 120 minutes after drug administration ([2]; listed as papaverine) |
| --- | --- | --- | --- | --- | --- | --- | --- | --- | --- | --- | --- | --- | --- | --- | --- | --- | --- | --- |
| CCCCC[C@H](O)/C=C/[C@H]1[C@H](O)CC(=O)[C@@H]1CCCCCCC(=O)O [PGE1 dissolved in 75% aqueous ethanol, Prostaglandin E1] | No significant remaining changes were observed | 60 | 20 | 30 |  |  |  |  |  |  |  |  |  |  |  |  |  |  |
| COc1ccc(Cc2nccc3cc(OC)c(OC)cc23)cc1OC [Papaverine, papaverine] |  |  |  |  | 2341 ± 94.87 | 319 ± 13.27 | 107 ± 4.11 | 358 ± 13.95 | 86 ± 4.76 | 402 ± 18.44 | 435 ± 17.76 | 296 ± 12.58 | 287 ± 11.96 | 274 ± 10.88 | 5 | produced recovery of blood flow volume | 325 ± 9.80 | a slightly greater effect that was comparable to that produced by composition comprising 80 μg PGE1 |
